Like-named read-outs stand apart in the source and are kept apart here.
Tests used:
FABP3/GDF-15 = conditions: for median FABP3/GDF-15 ratio: FABP3 in ng/ml, GDF-15 in pg/mL, baseline median ratio 0.017
Excerpt: (§1) A total of 100 patients with stable chronic HFrEF participating in a prospective registry at the heart failure outpatient clinic at the Medical University of Vienna, which has been imputed with all clinically relevant data, are included in the present study. The inclusion criteria of the registry are documented chronic HFrEF, an age of at least 18 years and stable heart failure related medical therapy in the last 3 months. Inclusion criteria for this study is the participation in the registry, and the absence of any exclusion criteria avoiding the prescription of SGLT-2 inhibitor (Dapagliflozin). Visits at the outpatient clinic are conducted at baseline (visit 0), at week 4 after SGLT-2 inhibitor therapy initiation (visit 1), after 3 month (visit 2), after 6 months (visit 3), and every 6 months thereafter.
(§2) Blood and urine samples are drawn from a peripheral vein and collected at baseline prior to administration of the SGLT-2 inhibitor and repeated at every regularly scheduled study-visit. Samples are used for (1.) routine laboratory analysis and (2.) biobank storage.
(§3) Blood for the biobank is immediately centrifuged and plasma samples are stored at-80° C. for future analysis. The plasma samples and urine samples are stored in the central “biobank” facility of the Department of Laboratory Medicine at the Medical University of Vienna.
(§4) FABP3 and additional cardiac biomarkers N-terminal B-type natriuretic peptide (NT-proBNP) and GDF-15 are measured in plasma using the Elecsys Systems (Roche Diagnostics, Mannheim, Germany).

FABP3/NT-proBNP = conditions: for median FABP3/NT-proBNP ratio: FABP3 in ng/ml, NT-proBNP in pg/mL, baseline median ratio 0.026
Excerpt: as §1, §2, §3, §4

NT-proBNP = conditions: for median NT-proBNP concentration: baseline median 1396.30; for change of amount of NT-proBNP before and after initiation: before and after SGLT2i initiation
Excerpt: as §1, §2, §3, §4

FABP3 = conditions: for amount of FABP3 higher compared to baseline: 3 months (V2)
Excerpt: as §1, §2, §3, §4

GDF-15 = conditions: baseline median 2439.34
Excerpt: as §1, §2, §3, §4

[1] = after 6 months (V3), vs. baseline
[2] = V1: week 4 after SGLT2i therapy initiation

## CCOc1ccc(Cc2cc([C@@H]3O[C@H](CO)[C@@H](O)[C@H](O)[C@H]3O)ccc2Cl)cc1 [SGLT2i, Dapagliflozin]
FABP3/GDF-15; V1: week 4
  median FABP3/GDF-15 ratio: 0.016
FABP3/GDF-15; V2: 3 months
  median FABP3/GDF-15 ratio: 0.016
FABP3/GDF-15; V3: 6 months
  median FABP3/GDF-15 ratio: 0.016
FABP3/GDF-15; V4: 12 months
  median FABP3/GDF-15 ratio: 0.019
FABP3/GDF-15; after SGLT2i initiation
  change of FABP3/GDF-15 ratio after initiation: remains stable
FABP3/GDF-15; at 12 months (V4), vs. baseline
  peak of relative increase of FABP3/GDF-15 ratio: 12%
FABP3/NT-proBNP; V1: week 4
  median FABP3/NT-proBNP ratio: 0.032
FABP3/NT-proBNP; V2: 3 months
  median FABP3/NT-proBNP ratio: 0.039
FABP3/NT-proBNP; V3: 6 months
  median FABP3/NT-proBNP ratio: 0.046
FABP3/NT-proBNP; V4: 12 months
  median FABP3/NT-proBNP ratio: 0.033
FABP3/NT-proBNP; [1]
  peak of relative increase of FABP3/NT-proBNP ratio: 77%
FABP3/NT-proBNP; over time after SGLT2i initiation
  change of FABP3/NT-proBNP ratio after initiation: increases over time
NT-proBNP; [2]
  median NT-proBNP concentration: 1115.68 pg/mL
NT-proBNP; V2: 3 months
  median NT-proBNP concentration: 1191.95 pg/mL
NT-proBNP; V3: 6 months
  median NT-proBNP concentration: 889.21 pg/mL
NT-proBNP; V4: 12 months
  median NT-proBNP concentration: 1172.84 pg/mL
NT-proBNP
  change of amount of NT-proBNP before and after initiation: does not correlate
NT-proBNP; listed as SGLTi
  change of amount of NT-proBNP before and after initiation: does not significantly change
FABP3; [1]
  relative increase of FABP3 concentration alone: 19%
FABP3; chronic HFrEF patients
  change in plasma concentration of FABP3 after therapy initiation: increase in plasma concentration of FABP3
FABP3; chronic HFrEF patients, V1: week 4 after SGLT2i therapy initiation, baseline median 37.82
  median FABP3 plasma concentration: 40.86 ng/mL
FABP3; chronic HFrEF patients, V2: 3 months, baseline median 37.82
  median FABP3 plasma concentration: 45.14 ng/mL
FABP3; chronic HFrEF patients, V3: 6 months, baseline median 37.82
  median FABP3 plasma concentration: 44.36 ng/mL
FABP3; chronic HFrEF patients, V4: 12 months, baseline median 37.82
  FABP3 plasma concentration: 44.47 ng/mL
FABP3; patient subgroup with high baseline FABP3 (above 37.8 ng/ml)
  amount of FABP3 higher compared to baseline: about 14%
FABP3; patient subgroup with low baseline FABP3 (below 37.8 ng/ml)
  amount of FABP3 higher compared to baseline: about 27%
FABP3; patients with high baseline FABP3 (above 37.8 ng/ml), V1: week 4, baseline median 47.97
  median FABP3 concentration: 53.56 ng/mL
FABP3; patients with high baseline FABP3 (above 37.8 ng/ml), V2: 3 months, baseline median 47.97
  median FABP3 concentration: 54.73 ng/mL
FABP3; patients with high baseline FABP3 (above 37.8 ng/ml), V3: 6 months, baseline median 47.97
  median FABP3 concentration: 54.51 ng/mL
FABP3; patients with high baseline FABP3 (above 37.8 ng/ml), V4: 12 months, baseline median 47.97
  FABP3 concentration: 53.23 ng/mL
FABP3; patients with low baseline FABP3 (below 37.8 ng/mL), V1: week 4, baseline median 29.05
  median FABP3 concentration: 31.41 ng/mL
FABP3; patients with low baseline FABP3 (below 37.8 ng/mL), V2: 3 months, baseline median 29.05
  median FABP3 concentration: 38.86 ng/mL
FABP3; patients with low baseline FABP3 (below 37.8 ng/mL), V3: 6 months, baseline median 29.05
  median FABP3 concentration: 36.41 ng/mL
FABP3; patients with low baseline FABP3 (below 37.8 ng/mL), V4: 12 months, baseline median 29.05
  FABP3 concentration: 36.76 ng/mL
FABP3; under SGLTi treatment
  time for which the FABP3 increase is apparent: ≥ 12 months
GDF-15; [2]
  median GDF-15 concentration: 2657.16 pg/mL
GDF-15; V2: 3 months
  median GDF-15 concentration: 3036.18 pg/mL
GDF-15; V3: 6 months
  median GDF-15 concentration: 2414.01 pg/mL
GDF-15; V4: 12 months
  median GDF-15 concentration: 2039.85 pg/mL

Reference: patent US20260235623A1, “EFFECT INDUCED BY A SODIUM-GLUCOSE COTRANSPORTER INHIBITOR (SGLTi) IN A SUBJECT SUFFERING FROM A CARDIOVASCULAR DISEASE” (Roche Diagnostics Operations, Inc., priority 2023, published 2026)
